One may read the melting point as the temperature of the solid-liquid transition. For orientation: MIC means the smallest concentration in the dilution series that meets the test's criterion for growth inhibition. Broadly, the IC50 is the concentration at which inhibition is half-maximal.

This is an account of results in publication PMC10294832, “Investigation of Naphthyl–Polyamine Conjugates as Antimicrobials and Antibiotic Enhancers” (Antibiotics, 2023).

Structures are written as SMILES. Values joined by “and” are separate entries in the source; they are usually repeats but may differ in a detail not shown here. Equal entries are not always repeated.

For series [1], the system named is A. baumannii (ATCC 19606). As to the kind of experiment: Antimicrobial MIC, A. baumannii. The class given is cell-based, Acinetobacter baumannii. To be noted: Acinetobacter baumannii, ATCC19606, A. baumannii (ATCC 19606); mean (n = 2).
In series [2] the test system is MRSA (ATCC 43300). Nature of the series: Antimicrobial MIC, MRSA. The note with it: Staphylococcus aureus, MRSA (ATCC 43300); mean (n = 2); read-out: MIC MRSA. The class given is cell-based, methicillin-resistant Staphylococcus aureus.
Series [3] relates to K. pneumoniae (ATCC 700603). As to the kind of experiment: Antimicrobial MIC, K. pneumoniae. To be noted: Klebsiella pneumoniae, ATCC700603, mean (n = 2). It counts as cell-based.
The subject of series [4] is C. neoformans (ATCC 208821). As to the kind of experiment: Antifungal MIC, C. neoformans. It counts as cell-based, Cryptococcus neoformans. The note with it: Cryptococcus neoformans, ATCC208821, C. neoformans (ATCC 208821); mean (n = 2). Summed up:
(§1)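 Antifungal values reflect testing at The University of Queensland's open antimicrobial discovery facility by its standard protocols. Antibacterial MICs were measured in-house, alongside reference antibiotics, by a published method.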

Series [5] concerns C. albicans (ATCC 90028). Nature of the series: Antifungal MIC, C. albicans. The class given is cell-based. To be noted: Candida albicans, ATCC90028, mean (n = 2). The method, boiled down:
as §1

For series [6], the system named is S. aureus (ATCC 25,923 or ATCC 29213). As to the kind of experiment: Antimicrobial MIC, S. aureus. The class given is cell-based, Staphylococcus aureus. To be noted: Staphylococcus aureus, mean (n = 3). The method, boiled down:
as §1

The test system of series [7] is E. coli (ATCC 25922). Nature of the series: Antimicrobial MIC, E. coli. It counts as cell-based, Escherichia coli. The note with it: Escherichia coli, ATCC25922, E. coli (ATCC 25922); mean (n = 2). Summed up:
as §1

Series [8] deals with P. aeruginosa (PAO1 or ATCC 27853). Nature of the series: Antimicrobial MIC, P. aeruginosa. The class given is cell-based. The note with it: Pseudomonas aeruginosa; P. aeruginosa (PAO1 or ATCC 27853); mean (n = 3); read-out: MIC P. a. The method, boiled down:
as §1

The subject of series [9] is E. coli (ATCC 25922). Nature of the series: Enhancement of erythromycin activity. The class given is cell-based, Escherichia coli. The note with it: for Eryth/E.c: concentration required to restore erythromycin activity (combination MIC): erythromycin fixed at 10.9 µM (8 µg/mL), E. coli (ATCC 25922); for Eryth/E.c fold change: ratio between intrinsic MIC of test compound and combination MIC, erythromycin 10.9 µM, E. coli. The method, then:
Restoring enhancer concentrations were determined using previously reported protocols.

Series [10] has as its system P. aeruginosa (ATCC 27853). Nature of the series: Enhancement of doxycycline activity. The class given is cell-based, Pseudomonas aeruginosa. To be noted: for Dox/P.a: concentration required to restore doxycycline activity (combination MIC): doxycycline fixed at 4.5 µM (2 µg/mL), P. aeruginosa (ATCC 27853); for Dox/P.a fold change: ratio between intrinsic MIC of test compound and combination MIC, doxycycline 4.5 µM, P. aeruginosa.

Series [11] can be described thus: Cytotoxicity assay. It counts as cell-based, human. The note with it: human, HEK293 human embryonic kidney cells, concentration at 50% cytotoxicity on HEK293 cells; mean (n = 2). The method, then: Cytotoxicity assays were conducted using the protocols previously reported.
The subject of series [12] is human red blood cells. As to the kind of experiment: Hemolytic assay. It counts as cell-based. The note with it: concentration at 10% hemolytic activity on human red blood cells; mean (n = 2). The method, then:
Hemolysis assays were conducted using the protocols previously reported.

On to `O=C(O)CCC(=O)Nc1cccc2ccccc12` [Compound 9, 4-(Naphthalen-1-ylamino)-4-oxobutanoic Acid], for which the melting point is 165 to 167 °C.

On to `O=C(O)CCC(=O)Nc1ccc(-c2ccccc2)cc1` [Compound 12, 4-([1,1’-Biphenyl]-4-ylamino)-4-oxobutanoic Acid], for which the melting point is over 230 °C.

For the compound `O=C(NCCCNCCCCNCCCNC(=O)c1cccc2ccccc12)c1cccc2ccccc12.O=C(O)C(F)(F)F.O=C(O)C(F)(F)F` [Compound 17a, N^1,N^4-Bis(3-(1-naphthamido)propyl)butane-1,4-diaminium 2,2,2-trifluoroacetate], the melting point was in the range of 238 to 239 °C. In series [1], this compound displayed an MIC of over 43.3 µM. For the same compound, in series [2], the MIC was over 43.3 µM. The compound also gave an MIC in series [3] of over 43.3 µM. In series [4], this compound had a minimum inhibitory concentration (MIC) of over 43.3 µM. The compound further registered an MIC in [5] of over 43.3 µM. Further, the MIC in series [6] was 677 µM. This compound also registered an MIC in [7] of 677 µM. Besides, the MIC in [8] is 677 µM. Further, in series [9], the “Eryth/E.c: concentration required to restore erythromycin activity (combination MIC)” value (from here on “Eryth/E.c: concentration required”) amounted to 67.7 µM and the Eryth/E.c fold change worked out at 10 fold. For the same compound, in [10], the “Dox/P.a: concentration required to restore doxycycline activity (combination MIC)” value (“Dox/P.a: concentration required” below) amounted to 271 µM and the Dox/P.a fold change is listed as 2.5 fold.

Consider `O=C(NCCCNCCCCCCNCCCNC(=O)c1cccc2ccccc12)c1cccc2ccccc12.O=C(O)C(F)(F)F.O=C(O)C(F)(F)F` [Compound 17b, N^1,N^6-Bis(3-(1-naphthamido)propyl)hexane-1,6-diaminium 2,2,2-trifluoroacetate], for which the melting point was 225 to 227 °C. In series [1], this compound showed a minimum inhibitory concentration (MIC) of over 41.7 µM. Further, the MIC in [2] was over 41.7 µM. In series [3], this compound came in with an MIC of over 41.7 µM. In addition, in series [11], the 50% inhibitory concentration (IC50) was over 41.7 µM. Also, the minimal inhibitory concentration (MIC) in [4] is over 41.7 µM. The MIC in [5] was over 41.7 µM. Also, the MIC in series [6] was 200 µM. The compound also returned an MIC in series [7] of 200 µM. Besides, the minimal inhibitory concentration (MIC) in series [8] was found to be 200 µM. Also, the “Hemolysis HC10” value in [12] is recorded as over 41.7 µM. Also, in [9], the “Eryth/E.c: concentration required” value was determined as 100 µM and the Eryth/E.c fold change is 2 fold. In series [10], the “Dox/P.a: concentration required” value is reported as 12.5 µM and the Dox/P.a fold change is given as 16 fold.

On to `O=C(CCC(=O)Nc1ccc2ccccc2c1)NCCCNCCCCCCCCNCCCNC(=O)CCC(=O)Nc1ccc2ccccc2c1.O=C(O)C(F)(F)F.O=C(O)C(F)(F)F` [Compound 20d, N^1,N^8-Bis(3-(4-(naphthalen-2-ylamino)-4-oxobutanamido)propyl)octane-1,8-diaminium 2,2,2-trifluoroacetate], for which the MIC in [1] is over 34.2 µM; in series [2] it was over 34.2 µM; in [3], over 34.2 µM; in series [4] it was 17.1 µM; in [5], over 34.2 µM; in series [6] it was 13.3 µM. The results for the MIC in [7] and in [8] were 107 µM and over 107 µM, respectively. In series [11], this compound displayed a half-inhibitory concentration (IC50) of over 34.2 µM. Moreover, in [12], the “Hemolysis HC10” value is reported as over 34.2 µM. The “Eryth/E.c: concentration required” value in series [9] is recorded as 26.7 µM. In addition, the Eryth/E.c fold change in series [9] is recorded as 4 fold. Moreover, the “Dox/P.a: concentration required” value in series [10] was determined as 53.4 µM. Further, in series [10], the Dox/P.a fold change is over 2 fold.

As to `O=C(CCC(=O)Nc1ccc2ccccc2c1)NCCCNCCCCCCCCCCNCCCNC(=O)CCC(=O)Nc1ccc2ccccc2c1.O=C(O)C(F)(F)F.O=C(O)C(F)(F)F` [Compound 20e, N^1,N^10-Bis(3-(4-(naphthalen-2-ylamino)-4-oxobutanamido)propyl)decane-1,10-diaminium 2,2,2-trifluoroacetate], the MIC in series [1] is over 33.2 µM; in series [2], 16.6 µM; in [3], over 33.2 µM; in [4], 16.6 µM; in [5] it was over 33.2 µM; in series [6], 12.9 µM. Moreover, the minimum inhibitory concentration (MIC) in series [7] stood at 104 µM; in series [8], 518 µM. For the same compound, in series [11], the IC50 is over 33.2 µM. In addition, in series [12], the “Hemolysis HC10” value is over 33.2 µM. In addition, the “Eryth/E.c: concentration required” value in [9] was 13 µM and 13.0 µM. Besides, the Eryth/E.c fold change in series [9] came to 8 fold. In addition, the “Dox/P.a: concentration required” value in series [10] was determined as 104 µM. For the same compound, in series [10], the Dox/P.a fold change was 5 fold.

In turn, `O=C(CCC(=O)Nc1ccc(-c2ccccc2)cc1)NCCCNCCCCNCCCNC(=O)CCC(=O)Nc1ccc(-c2ccccc2)cc1.O=C(O)C(F)(F)F.O=C(O)C(F)(F)F` [Compound 21a, N^1,N^4-Bis(3-(4-([1,1’-biphenyl]-4-ylamino)-4-oxobutanamido)propyl)butane-1,4-diaminium 2,2,2-trifluoroacetate] came in with a melting point of 203 to 205 °C. In addition, the MIC in series [1] is over 34.3 µM. Also, in [2], the MIC stood at 0.268 µM. Further, the MIC in series [3] was over 34.3 µM. The same compound had a concentration for half-maximal inhibition (IC50) in [11] of over 34.3 µM. In addition, the MIC in series [4] is over 34.3 µM. In series [5], this compound displayed an MIC of over 34.3 µM. In series [6], this compound yielded an MIC of 300 µM. The same compound registered a minimal inhibitory concentration (MIC) in series [7] of 300 µM. For the same compound, the MIC in series [8] came to 300 µM. For the same compound, the “Hemolysis HC10” value in series [12] came out at 31.4 µM. Further, in series [9], the “Eryth/E.c: concentration required” value turned out to be 300 µM and the Eryth/E.c fold change came to 1 fold. Moreover, in series [10], the “Dox/P.a: concentration required” value is given as 300 µM and the Dox/P.a fold change worked out at 1 fold.

`O=C(CCC(=O)Nc1ccc(-c2ccccc2)cc1)NCCCNCCCCCCNCCCNC(=O)CCC(=O)Nc1ccc(-c2ccccc2)cc1.O=C(O)C(F)(F)F.O=C(O)C(F)(F)F` [Compound 21b, N^1,N^6-Bis(3-(4-([1,1’-biphenyl]-4-ylamino)-4-oxobutanamido)propyl)hexane-1,6-diaminium 2,2,2-trifluoroacetate] registered a melting point of 200 to 202 °C. In [1], the MIC is over 33.3 µM. For the same compound, the MIC in series [2] was 2.08 µM. This compound came in with an MIC in [3] of over 33.3 µM. This compound came in with an IC50 in series [11] of over 33.3 µM. This compound also came in with an MIC in series [4] of over 33.3 µM. This compound had an MIC in series [5] of over 33.3 µM. In series [6], this compound returned an MIC of 300 µM. Also, the MIC in series [7] worked out at 300 µM. In series [8], the MIC is 300 µM. In series [12], the “Hemolysis HC10” value was over 33.3 µM. In [9], the “Eryth/E.c: concentration required” value is recorded as 300 µM and the Eryth/E.c fold change is listed as 1 fold. Also, in series [10], the “Dox/P.a: concentration required” value is recorded as 300 µM and the Dox/P.a fold change was 1 fold.

On to `O=C(CCC(=O)Nc1ccc(-c2ccccc2)cc1)NCCCNCCCCCCCNCCCNC(=O)CCC(=O)Nc1ccc(-c2ccccc2)cc1.O=C(O)C(F)(F)F.O=C(O)C(F)(F)F` [Compound 21c, N^1,N^7-Bis(3-(4-([1,1’-biphenyl]-4-ylamino)-4-oxobutanamido)propyl)heptane-1,7-diaminium 2,2,2-trifluoroacetate], for which the melting point fell in the range of 178 to 180 °C. Besides, the MIC in series [1] is over 32.8 µM. Besides, in series [2], the MIC came to 0.256 µM. For the same compound, in series [3], the MIC was over 32.8 µM. The IC50 in [11] is over 32.8 µM. The MIC in series [4] was over 32.8 µM. Further, in series [5], the MIC is over 32.8 µM. Besides, in series [6], the MIC stood at 200 µM. The same compound had an MIC in series [7] of 300 µM. In addition, the minimum inhibitory concentration (MIC) in [8] was determined as 300 µM. In series [12], the “Hemolysis HC10” value is reported as over 32.8 µM. In [9], the “Eryth/E.c: concentration required” value is reported as 300 µM and the Eryth/E.c fold change is given as 1 fold. Also, in series [10], the “Dox/P.a: concentration required” value amounted to 300 µM and the Dox/P.a fold change stood at 1 fold.
